Reference: patent US20230117470A1, “SUBSTITUTED PYRAZOLE COMPOUNDS AS TOLL RECEPTOR INHIBITORS” (BRISTOL-MYERS SQUIBB COMPANY, priority 2019, published 2023)

Tests used:
Format in all cases: cell-based
human TLR7 = target: T1, human TLR7 (Homo sapiens, UniProt Q9NYK1); test: TLR7 inhibition reporter assay (HEK-Blue cells, SEAP reporter, gardiquimod stimulation); details: HEK-Blue cells overexpressing human TLR7, SEAP reporter, gardiquimod 7.5 μM
T1 construct: host or cells: HEK-Blue cells
T1 sequence (Q9NYK1 27-1049): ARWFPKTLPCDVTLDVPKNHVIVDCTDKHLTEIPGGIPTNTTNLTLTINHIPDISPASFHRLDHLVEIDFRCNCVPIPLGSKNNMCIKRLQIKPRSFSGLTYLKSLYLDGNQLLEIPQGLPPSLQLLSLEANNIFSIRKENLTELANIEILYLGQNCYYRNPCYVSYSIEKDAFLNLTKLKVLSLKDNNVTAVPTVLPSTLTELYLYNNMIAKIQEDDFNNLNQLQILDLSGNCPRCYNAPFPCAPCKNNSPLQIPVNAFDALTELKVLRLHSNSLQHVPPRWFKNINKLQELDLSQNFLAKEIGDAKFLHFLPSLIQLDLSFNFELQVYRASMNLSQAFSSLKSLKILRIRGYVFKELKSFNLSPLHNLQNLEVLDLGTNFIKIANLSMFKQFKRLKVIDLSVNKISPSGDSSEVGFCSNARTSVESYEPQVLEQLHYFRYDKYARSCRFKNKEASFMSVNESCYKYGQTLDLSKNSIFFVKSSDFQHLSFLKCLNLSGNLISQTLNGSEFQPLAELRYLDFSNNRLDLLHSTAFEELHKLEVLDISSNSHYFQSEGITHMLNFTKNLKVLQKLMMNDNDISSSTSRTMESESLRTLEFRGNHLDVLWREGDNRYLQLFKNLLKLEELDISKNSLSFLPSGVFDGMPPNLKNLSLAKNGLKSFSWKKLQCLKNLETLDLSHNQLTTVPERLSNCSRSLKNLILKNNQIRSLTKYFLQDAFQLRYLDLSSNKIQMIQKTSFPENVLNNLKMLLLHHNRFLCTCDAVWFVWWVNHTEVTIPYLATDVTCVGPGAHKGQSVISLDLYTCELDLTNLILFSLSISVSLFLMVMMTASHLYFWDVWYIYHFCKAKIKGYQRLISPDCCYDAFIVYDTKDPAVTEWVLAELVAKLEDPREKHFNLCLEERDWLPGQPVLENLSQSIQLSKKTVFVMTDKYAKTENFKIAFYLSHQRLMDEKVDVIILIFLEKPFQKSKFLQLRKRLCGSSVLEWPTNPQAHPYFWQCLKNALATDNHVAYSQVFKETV
How it was run: (§1)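 HEK-Blue cells overexpressing human TLR7, TLR8 or TLR9, with an NF-κB/AP-1-driven SEAP reporter, pre-treated 30 min at room temperature with compound (0.05 nM-50 μM final). Stimulated with 7.5 μM gardiquimod (TLR7), 15.9 μM R848 (TLR8) or 5 nM ODN2006 (TLR9), then 22 h at 37° C. SEAP read with HEK-Blue Detection; % inhibition set against agonist+DMSO and known-inhibitor wells.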

human TLR8 = target: T2, human TLR8 (Homo sapiens, UniProt Q9NR97); test: TLR8 inhibition reporter assay (HEK-Blue cells, SEAP reporter, R848 stimulation); details: HEK-Blue cells overexpressing human TLR8, SEAP reporter, R848 15.9 μM
T2 construct: host or cells: HEK-Blue cells
T2 sequence (Q9NR97 27-1041): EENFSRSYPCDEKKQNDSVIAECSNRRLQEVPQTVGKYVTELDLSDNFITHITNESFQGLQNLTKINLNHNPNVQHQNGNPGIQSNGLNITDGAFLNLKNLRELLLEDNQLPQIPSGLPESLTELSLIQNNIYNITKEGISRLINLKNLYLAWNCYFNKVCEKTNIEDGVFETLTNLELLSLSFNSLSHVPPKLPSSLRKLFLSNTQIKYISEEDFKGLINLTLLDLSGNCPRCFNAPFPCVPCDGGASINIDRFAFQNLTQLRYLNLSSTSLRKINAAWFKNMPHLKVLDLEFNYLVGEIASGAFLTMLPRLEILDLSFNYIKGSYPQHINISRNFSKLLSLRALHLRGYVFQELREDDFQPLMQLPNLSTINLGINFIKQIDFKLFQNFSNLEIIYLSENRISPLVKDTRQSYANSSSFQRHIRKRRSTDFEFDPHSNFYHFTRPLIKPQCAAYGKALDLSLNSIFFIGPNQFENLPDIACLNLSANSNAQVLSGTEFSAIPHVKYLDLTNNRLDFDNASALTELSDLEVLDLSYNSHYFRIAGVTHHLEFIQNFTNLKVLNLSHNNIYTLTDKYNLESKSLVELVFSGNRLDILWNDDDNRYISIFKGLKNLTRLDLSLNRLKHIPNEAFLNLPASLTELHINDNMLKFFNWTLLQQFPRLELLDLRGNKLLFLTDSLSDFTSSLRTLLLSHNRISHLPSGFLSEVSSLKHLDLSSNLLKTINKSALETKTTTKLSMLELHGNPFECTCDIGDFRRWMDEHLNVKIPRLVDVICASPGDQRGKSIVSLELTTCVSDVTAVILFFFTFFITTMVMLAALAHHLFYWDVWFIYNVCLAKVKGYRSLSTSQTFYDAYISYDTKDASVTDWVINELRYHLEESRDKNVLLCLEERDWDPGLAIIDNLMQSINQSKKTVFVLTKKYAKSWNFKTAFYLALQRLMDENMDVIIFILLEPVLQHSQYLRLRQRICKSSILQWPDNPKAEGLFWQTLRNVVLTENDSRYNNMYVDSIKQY
How it was run: as §1

human TLR9 = target: T3, human TLR9 (Homo sapiens, UniProt Q9NR96); test: TLR9 inhibition reporter assay (HEK-Blue cells, SEAP reporter, ODN2006 stimulation); details: HEK-Blue cells overexpressing human TLR9, SEAP reporter, ODN2006 5 nM
T3 construct: host or cells: HEK-Blue cells
T3 sequence (Q9NR96 26-1032): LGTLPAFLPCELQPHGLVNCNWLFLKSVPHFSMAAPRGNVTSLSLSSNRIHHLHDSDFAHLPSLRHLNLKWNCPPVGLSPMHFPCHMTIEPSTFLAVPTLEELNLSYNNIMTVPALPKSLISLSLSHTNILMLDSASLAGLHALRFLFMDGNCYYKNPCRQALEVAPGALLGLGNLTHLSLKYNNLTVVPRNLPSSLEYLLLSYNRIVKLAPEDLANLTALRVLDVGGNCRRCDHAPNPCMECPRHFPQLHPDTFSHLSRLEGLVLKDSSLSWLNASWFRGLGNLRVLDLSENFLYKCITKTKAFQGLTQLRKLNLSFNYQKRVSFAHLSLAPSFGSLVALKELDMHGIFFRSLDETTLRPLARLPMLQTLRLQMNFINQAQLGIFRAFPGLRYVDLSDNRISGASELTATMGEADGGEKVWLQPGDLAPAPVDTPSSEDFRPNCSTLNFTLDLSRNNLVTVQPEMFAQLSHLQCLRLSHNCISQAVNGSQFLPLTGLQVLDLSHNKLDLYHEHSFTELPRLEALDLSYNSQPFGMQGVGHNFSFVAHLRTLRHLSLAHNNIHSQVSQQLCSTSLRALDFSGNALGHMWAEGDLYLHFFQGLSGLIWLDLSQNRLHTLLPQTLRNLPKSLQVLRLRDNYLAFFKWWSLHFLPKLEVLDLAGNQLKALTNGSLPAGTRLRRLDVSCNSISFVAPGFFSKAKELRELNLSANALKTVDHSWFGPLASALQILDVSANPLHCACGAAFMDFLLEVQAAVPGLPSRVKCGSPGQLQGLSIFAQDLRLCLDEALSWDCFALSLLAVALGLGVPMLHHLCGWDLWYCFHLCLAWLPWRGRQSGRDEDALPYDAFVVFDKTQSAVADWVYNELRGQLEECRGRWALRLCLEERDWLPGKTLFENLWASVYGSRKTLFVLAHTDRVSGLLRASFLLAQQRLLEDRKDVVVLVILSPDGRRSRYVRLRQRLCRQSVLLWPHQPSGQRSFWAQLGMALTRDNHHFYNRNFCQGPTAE
How it was run: as §1

Compound | IC50 (human TLR7) [µM] | IC50 (human TLR8) [µM] | IC50 (human TLR9) [µM]
COc1cc(-c2[nH]nc(C(=O)NC3CCN(C4CCN(C(C)C)CC4)CC3)c2CC(F)(F)F)cn2ncnc12 [Example 199] | 0.00498 | 0.00219 | 2.95
Cc1cc(-c2[nH]nc(C(=O)N3CCOCC3)c2C(C)C)cn2ncnc12 [Example 30] | 0.00437 | 0.00207 | 14.8
COc1ncc(CN[C@H]2CC[C@H](NC(=O)c3n[nH]c(-c4cc(C)c5ncnn5c4)c3C(C)C)CC2)cn1 [Example 114] | 0.00363 | 0.0014 | 1.46
Cc1cc(-c2[nH]nc(C(=O)N[C@H]3CC[C@@H](NCC4(C)COC4)CC3)c2C(C)C)cn2ncnc12 [Example 151] | 0.0492 | 0.06 | 23.4
CCN1CCOC(CNC(=O)c2n[nH]c(-c3cc(C)c4ncnn4c3)c2C(C)C)C1 (stereo not drawn) [Example 140] | 0.00059 | 0.00089 | 10.4
Cc1cc(-c2[nH]nc(C3CCN(C(=O)CCN(C)C)CC3)c2C(C)C)cn2ncnc12 [Example 208, 3-(dimethylamino)-1-(4-(4-isopropyl-5-(8-methyl-[1,2,4]triazolo[1,5-a]pyridin-6-yl)-1H-pyrazol-3-yl)piperidin-1-yl)propan-1-one] | 0.001 | 0.00052 | 20
COc1cc(-c2[nH]nc(-c3ccc(C4CCN(CC(F)(F)F)CC4)cc3)c2C(C)C)cn2ncnc12 [Example 320] | 0.00438 | 0.0013 | 21.9
Cc1cc(-c2[nH]nc(C(=O)N[C@H]3CC[C@H](N(CCC(C)(C)C)CCC(C)(C)C)CC3)c2C(C)C)cn2ncnc12 [Example 107] | 0.0036 | 0.19 | 15.4
Cc1cc(-c2[nH]nc(C(=O)N3CC(N(C)C)C3)c2C(C)C)cn2ncnc12 [Example 21] | 0.00689 | 0.039 | > 50
Cc1cc(-c2[nH]nc(-c3cncc(NC(C)C)c3)c2C(C)C)cn2ncnc12 [Example 239] | 0.00196 | 0.00027 | 9.93
Cc1cc(-c2[nH]nc(C(=O)N[C@H]3CCCN(C)C3)c2C(C)C)cn2ncnc12 [Example 162] | 0.0026 | 0.0157 | 20.3
Cc1cc(-c2[nH]nc(-c3ccc(C4CN(CC(C)(C)O)C4)cc3)c2C(C)C)cn2ncnc12 [Example 336, 1-(3-(4-(4-isopropyl-5-(8-methyl-[1,2,4]triazolo[1,5-a]pyridin-6-yl)-1H-pyrazol-3-yl)phenyl)azetidin-1-yl)-2-methylpropan-2-ol] | 0.0135 | 0.0397 | 38.1
COc1cc(-c2[nH]nc(C(=O)NCC(C)(C)N3CCOCC3)c2C(C)C)cn2ncnc12 [Example 26] | 0.442 | 0.413 | 7.21
Cc1cc(-c2[nH]nc(C(=O)NC3CCCNC3)c2C(C)C)cn2ncnc12 (stereo not drawn) [Example 66] | 0.00359 | 0.0169 | 5.71
Cc1cc(-c2[nH]nc(C3CCC(NCC(F)F)CC3)c2C(C)C)cn2ncnc12 (single isomer, unassigned) [Example 279, N-(2,2-difluoroethyl)-4-(4-isopropyl-5-(8-methyl-[1,2,4]triazolo[1,5-a]pyridin-6-yl)-1H-pyrazol-3-yl)cyclohexan-1-amine] | 0.011 | 0.00108 | 23.9
CNC(=O)CN1CCC(c2n[nH]c(-c3cc(C)c4ncnn4c3)c2C(C)C)CC1 [Example 211, 2-(4-(4-isopropyl-5-(8-methyl-[1,2,4]triazolo[1,5-a]pyridin-6-yl)-1H-pyrazol-3-yl)piperidin-1-yl)-N-methylacetamide] | 0.00079 | 0.00058 | 14.3
COc1cc(-c2[nH]nc(C(=O)NC3CCN(C)CC3)c2C(C)C)cn2ncnc12 [Example 11] | 0.00378 | 0.00931 | 18.5
Cc1cc(-c2[nH]nc(C(=O)NC3CCN(C(C)C)CC3)c2C(C)C)cc(C)n1 [Example 36] | 1.3 | 1.54 | 25.2
COc1ncc(CN[C@H]2CC[C@@H](NC(=O)c3n[nH]c(-c4cc(C)c5ncnn5c4)c3C(C)C)CC2)cn1 [Example 96] | 0.00153 | 0.00098 | 7.77
CCN1CCC(c2ccc(-c3n[nH]c(-c4cc(OC)c5ncnn5c4)c3C(C)C)cc2)CC1 [Example 315] | 0.00522 | 0.0202 | > 50
Cc1cc(-c2[nH]nc(C(=O)NC3CN(CC4(C)COC4)C3)c2C(C)C)cn2ncnc12 [Example 154] | 0.0119 | 0.00333 | 9.31
CNC1CCC(NC(=O)c2n[nH]c(-c3cc(C)c4ncnn4c3)c2C(C)C)CC1 (stereo not drawn) [Example 129] | 0.00134 | 0.00736 | 14.4
CCN1CCC[C@H](NC(=O)c2n[nH]c(-c3cc(C)c4ncnn4c3)c2C(C)C)C1 [Example 164] | 0.00132 | 0.00443 | 15.6
